# Key:
# [1] = molecular target: T1, long isoform of human D2 receptor (Homo sapiens, UniProt P14416); assay: Arrestin Antagonist Assay (DRD2L PathHunter CHO-K1 cells, vs EC80 dopamine); details: for Emax: CHO-K1, read-out: β-arrestin (antagonist mode) Imax
# Method: Cell Lines: Activities of the compounds were assessed using a Chinese Hamster Ovary (CHO—K1) cell line that recombinantly expressed the long isoform of human D2 receptor (DRD2L PathHunter cells). The D2 receptor DNA sequence was modified to contain a “ProLink” at its C-terminus which allowed complementation with an “enzyme acceptor” (EA)-tagged β-arrestin protein. The recruitment of the O-arrestin by the D2 receptor led to complementation of the ProLink and EA and formation of active β-galactosidase which generated a D2-specific signal that was measured.
# Arrestin Antagonist Assay: One day prior to testing, a vial of high density stock of DRD2L PathHunter cells was thawed, and 1×10^7 cells diluted into 40 mL of growth media (Ham's F12/10% HI FBS/1% PSG). 20 μL cells per well were seeded directly into assay plates, and the plates were allowed to rest for 1 h at RT before incubating in a plate incubator overnight.
# The plate was incubated for 30 min at 37° C. 15 μL PathHunter detection reagent was added to each well of the assay plate, which was then covered and incubated for 1 h at RT. The plate was read on an Envision reader using the Luminescence protocol, and the data were exported for analysis.
# The IC50 values (concentration producing a half-maximal inhibitory response) were determined by non-linear regression analysis of the concentration-response curves.
# [2] = molecular target: T1, long isoform of human D2 receptor; assay: cAMP HTRF Agonist Assay (DRD2L PathHunter CHO-K1 cells, forskolin-stimulated); details: for Emax: CHO-K1, read-out: cAMP (agonist mode) Emax
# Method: Cell Lines: Activities of the compounds were assessed using a Chinese Hamster Ovary (CHO—K1) cell line that recombinantly expressed the long isoform of human D2 receptor (DRD2L PathHunter cells). The D2 receptor DNA sequence was modified to contain a “ProLink” at its C-terminus which allowed complementation with an “enzyme acceptor” (EA)-tagged β-arrestin protein. The recruitment of the O-arrestin by the D2 receptor led to complementation of the ProLink and EA and formation of active β-galactosidase which generated a D2-specific signal that was measured. The cAMP assay was measured in the same D2-expressing cell line. The D2 receptor inhibited cAMP formation so that the basal levels of cAMP were increased by the addition of an adenylate cyclase stimulator, forskolin.
# cAMP HTRF Agonist Assay: Two days prior to testing, a vial of high density stock of DRD2L PathHunter cells was thawed, and cells were diluted into 10 mL of growth media (Ham's F12/10% HI FBS/1% PSG) and used to seed a T225 flask containing 50 mL of growth media. Cells were cultured for 2 days.
# On the day of the assay, cells were dissociated in 5 mL cell dissociation buffer (enzyme free—Invitrogen) for 10-15 minutes at 37° C. Dissociated cells were diluted with 10 mL of growth media and counted. Cell counts were routinely ˜2×10^7 per T225. Cells were then pelleted at 1500 rpm for 5 min. Supernatant was aspirated, and cells were re-suspended in HBSS/20 mM Hepes, pH 7.4 to a cell density of 1×10^6/mL.
# cAMP levels were determined using the Cisbio HTRF method. HRTF reagents (cAMP-HTRF acceptor fluorophore (d2) conjugate and cryptate-labeled anti-cAMP antibody) were prepared according to maunfacturers instructions. 5 μL of each were added to each well of an assay plate and incubated for 1 h at RT. The plate was then read on an Envision reader using the HTRF protocol, and data were exported for analysis.
# The agonist Emax results were expressed as a percent of the dopamine control response ((measured specific response/control specific agonist response)×100) obtained in the presence of test article. The EC50 values (concentration producing a half-maximal specific response) were determined by non-linear regression analysis of the concentration-response curves.
# [3] = molecular target: T1, long isoform of human D2 receptor; assay: Arrestin Agonist Assay (DRD2L PathHunter CHO-K1 cells, β-arrestin recruitment); details: for Emax: CHO-K1, read-out: β-arrestin (agonist mode) Emax
# T1 sequence (P14416 whole entry, canonical isoform): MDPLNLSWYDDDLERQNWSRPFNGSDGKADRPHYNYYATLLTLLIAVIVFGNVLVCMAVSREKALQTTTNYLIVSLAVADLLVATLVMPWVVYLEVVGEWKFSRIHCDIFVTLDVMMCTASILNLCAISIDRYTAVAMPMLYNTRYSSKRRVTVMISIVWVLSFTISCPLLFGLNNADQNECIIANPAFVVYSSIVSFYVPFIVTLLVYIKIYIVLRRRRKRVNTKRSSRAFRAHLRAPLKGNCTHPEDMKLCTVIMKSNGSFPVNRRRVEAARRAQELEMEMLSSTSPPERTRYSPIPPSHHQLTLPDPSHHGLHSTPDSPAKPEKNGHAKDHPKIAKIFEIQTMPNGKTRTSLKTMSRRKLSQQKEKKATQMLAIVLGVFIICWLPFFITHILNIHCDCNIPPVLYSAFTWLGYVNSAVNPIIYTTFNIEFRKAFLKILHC
Compound,IC50 [1],Emax [1],IC50 [2],Emax [2],EC50 [3],Emax [3]
"c1ccc2c(N3CCN(CCCCOc4ccc5cn[nH]c5n4)CC3)cccc2c1 [Compound 2, 6-(4-(4-(naphthalen-1-yl)piperazin-1-yl)butoxy)-1H-pyrazolo[3,4-b]pyridine]",100 to 1000 nM,50 to 75%,10 to 100 nM,10 to 25%,10 to 100 nM,10 to 25%
"O=c1ccc2ccc(OCCCCN3CCc4ccccc4C3)nc2[nH]1 [Compound 52, 7-(4-(3,4-dihydroisoquinolin-2(1H)-yl)butoxy)-1,8-naphthyridin-2(1H)-one]",10 to 100 nM,> 75%,< 10 nM,50 to 75%,< 10 nM,10 to 25%
"O=C1CCc2ccc(OCCCCN3CCc4nn(-c5ccccn5)cc4C3)cc2N1 [Compound 38, 7-(4-(2-(pyridin-2-yl)-6,7-dihydro-2H-pyrazolo[4,3-c]pyridin-5(4H)-yl)butoxy)-3,4-dihydroquinolin-2(1H)-one]",10 to 100 nM,25 to 50%,< 10 nM,50 to 75%,< 10 nM,25 to 50%
"Oc1cccc2ccc(OCCCCN3CCN(c4cccc5ccccc45)CC3)nc12 [Compound 6, 2-(4-(4-(naphthalen-1-yl)piperazin-1-yl)butoxy)quinolin-8-ol]",100 to 1000 nM,50 to 75%,10 to 100 nM,25 to 50%,100 to 1000 nM,25 to 50%
"Oc1cccc2ccc(OCCCCN3CCN(c4ccccn4)CC3)nc12 [Compound 8, 2-(4-(4-(pyridin-2-yl)piperazin-1-yl)butoxy)quinolin-8-ol]",> 10000 nM,< 10%,< 10 nM,> 75%,10 to 100 nM,> 75%
"COc1ccc2c(c1)CCN(CCCCOc1ccc3cccc(O)c3n1)C2 [Compound 13, 2-(4-(6-methoxy-3,4-dihydroisoquinolin-2(1H)-yl)butoxy)quinolin-8-ol]",1000 to 10000 nM,> 75%,> 10000 nM,< 10%,< 10 nM,10 to 25%
"O=C1CCc2ccc(OCCCCN3CCc4nn(-c5ccccc5F)cc4C3)cc2N1 [Compound 35, 7-(4-(2-(2-fluorophenyl)-6,7-dihydro-2H-pyrazolo[4,3-c]pyridin-5(4H)-yl)butoxy)-3,4-dihydroquinolin-2(1H)-one]",10 to 100 nM,> 75%,> 10000 nM,< 10%,> 10000 nM,< 10%
"N#Cc1cccc2c1CN(CCCCOc1ccc3ccc(=O)[nH]c3n1)CC2 [Compound 64, 2-(4-((7-oxo-7,8-dihydro-1,8-naphthyridin-2-yl)oxy)butyl)-1,2,3,4-tetrahydroisoquinoline-8-carbonitrile]",10 to 100 nM,> 75%,< 10 nM,25 to 50%,< 10 nM,10 to 25%
"O=C1CCc2ccc(OCCCCN3CCc4ccsc4C3)nc2N1 [Compound 70, 7-(4-(4,5-dihydrothieno[2,3-c]pyridin-6(7H)-yl)butoxy)-3,4-dihydro-1,8-naphthyridin-2(1H)-one]",100 to 1000 nM,> 75%,> 10000 nM,< 10%,> 10000 nM,< 10%
"Oc1cccc2ccc(OCCCCN3CCc4cc(Cl)ccc4C3)nc12 [Compound 14, 2-(4-(6-chloro-3,4-dihydroisoquinolin-2(1H)-yl)butoxy)quinolin-8-ol]",1000 to 10000 nM,> 75%,> 10000 nM,< 10%,> 10000 nM,< 10%
"O=C1CCc2ccc(OCCCCN3CCc4nn(-c5cccc(F)c5)cc4C3)cc2N1 [Compound 36, 7-(4-(2-(3-fluorophenyl)-6,7-dihydro-2H-pyrazolo[4,3-c]pyridin-5(4H)-yl)butoxy)-3,4-dihydroquinolin-2(1H)-one]",> 10000 nM,< 10%,< 10 nM,> 75%,< 10 nM,> 75%
"O=C1CCc2ccc(OCCCCN3CCc4ncncc4C3)cc2N1 [Compound 23, 7-(4-(7,8-dihydropyrido[4,3-d]pyrimidin-6(5H)-yl)butoxy)-3,4-dihydroquinolin-2(1H)-one]",1000 to 10000 nM,25 to 50%,100 to 1000 nM,50 to 75%,100 to 1000 nM,10 to 25%
"Oc1cccc2ccc(OCCCCN3CCc4cccc(C(F)(F)F)c4C3)nc12 [Compound 21, 2-(4-(8-(trifluoromethyl)-3,4-dihydroisoquinolin-2(1H)-yl)butoxy)quinolin-8-ol]",100 to 1000 nM,> 75%,< 10 nM,25 to 50%,> 10000 nM,< 10%
"Clc1cccc2c1CCN(CCCCOc1cccc(-c3cc[nH]n3)n1)C2 [Compound 45, 2-(4-((6-(1H-pyrazol-3-yl)pyridin-2-yl)oxy)butyl)-5-chloro-1,2,3,4-tetrahydroisoquinoline]",> 10000 nM,< 10%,< 10 nM,> 75%,10 to 100 nM,> 75%
"Cc1cccc(N2CCN(CCCCOc3ccc4cn[nH]c4n3)CC2)c1C [Compound 3, 6-(4-(4-(2,3-dimethylphenyl)piperazin-1-yl)butoxy)-1H-pyrazolo[3,4-b]pyridine]",100 to 1000 nM,> 75%,10 to 100 nM,10 to 25%,> 10000 nM,< 10%
"O=C1CCc2ccc(OCCCCN3CCc4ccsc4C3)cc2N1 [Compound 28, 7-(4-(4,5-dihydrothieno[2,3-c]pyridin-6(7H)-yl)butoxy)-3,4-dihydroquinolin-2(1H)-one]",100 to 1000 nM,> 75%,< 10 nM,10 to 25%,> 10000 nM,< 10%
"O=C1NCCc2ccc(OCCCCN3CCc4ccccc4C3)nc2N1 [Compound 83, 8-(4-(3,4-dihydroisoquinolin-2(1H)-yl)butoxy)-4,5-dihydro-1H-pyrido[2,3-d][1,3]diazepin-2(3H)-one]",10 to 100 nM,> 75%,> 10000 nM,< 10%,> 10000 nM,< 10%
O=C1NCCc2ccc(OCCCCN3CCc4ccsc4C3)nc2N1 [Compound 87],10 to 100 nM,> 75%,> 10000 nM,< 10%,> 10000 nM,< 10%
"O=c1ccc2ccc(OCCCCN3CCc4ccsc4C3)nc2[nH]1 [Compound 54, 7-(4-(4,5-dihydrothieno[2,3-c]pyridin-6(7H)-yl)butoxy)-1,8-naphthyridin-2(1H)-one]",< 10 nM,> 75%,> 10000 nM,< 10%,> 10000 nM,< 10%
"c1cc(OCCCCN2CCc3ccccc3C2)nc(-c2c[nH]cn2)c1 [Compound 51, 2-(4-((6-(1H-imidazol-4-yl)pyridin-2-yl)oxy)butyl)-1,2,3,4-tetrahydroisoquinoline]",100 to 1000 nM,> 75%,> 10000 nM,< 10%,> 10000 nM,< 10%

# Source: patent publication US9951088B2, “D2 receptor modulators and methods of use thereof in the treatment of diseases and disorders” (SUNOVION PHARMACEUTICALS INC., priority 2012, dated 2018)
